Data on ten compounds can be found in patent publication US12594276B2, “Inhibitors of human immunodeficiency virus replication” (ViiV Healthcare UK (No.5) Limited, priority 2024, dated 2026).

The subject of data set [1] is recombinant NL4-3 virus (nef section replaced with Renilla luciferase gene) in MT-2 cells. The data set can be described thus: HIV cell culture assay (antiviral activity, luciferase readout). It is filed as cell-based. The following applies: Renilla, NL43, MT-2 cells infected for 4-5 days with recombinant NL4-3 Renilla luciferase virus. Summed up:
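The reporter virus was produced by transfecting 293T cells with the NL4-3 nef/Renilla luciferase proviral clone. MT-2 cells were infected for 4–5 days with serial compound dilutions present. Luciferase was read with a live-cell substrate, and EC50 came from the exponential median-effect equation.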

Data set [2] in a line: Compound cytotoxicity, XTT-based colorimetric assay. The format is cell-based. The following applies: human; uninfected MT2 cells, day 4, XTT; read-out: CC50. The gist of the method: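 Cells seeded as for the antiviral assay but left uninfected (MT2). Compound exposure continued to day 4. XTT reagent added and colour read. CC50 calculated.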

For orientation: EC50 means the concentration giving half of the maximal effect. A word on the CC50: it is the concentration giving 50% cytotoxicity.

A value given as a limit tells only on which side of the number the result lay.

With `Cc1cc(C2(F)CCC(F)(F)CC2)nc2nc([C@H](Cc3cc(F)cc(F)c3)NC(=O)Cn3nc(C(F)F)c4c3C(F)(F)[C@@H]3C[C@H]43)n(-c3ccc(Cl)c4c(NS(C)(=O)=O)nn([C@H](C)CN5C[C@H](F)C[C@H](F)C5)c34)c(=O)c12` (atropisomer, axis not shown; (P)) [Example 711, N-[(1S)-1-[(3P)-3-{4-chloro-1-[(2R)-1-[(3R,5S)-3,5-difluoropiperidin-1-yl]propan-2-yl]-3-methanesulfonamido-1H-indazol-7-yl}-5-methyl-4-oxo-7-(1,4,4-trifluorocyclohexyl)-3H,4H-pyrido[2,3-d]pyrimidin-2-yl]-2-(3,5-difluorophenyl)ethyl]-2-[(2S,4R)-9-(difluoromethyl)-5,5-difluoro-7,8-diazatricyclo[4.3.0.0^2,^4]nona-1(6),8-dien-7-yl]acetamide], the EC50 in data set [1] was 0.026 nM. In addition, the cytotoxic concentration (CC50) at 4 days in data set [2] was > 20 nM.

As to `C[C@H](CN1C[C@H](F)C[C@H](F)C1)n1nc(NS(C)(=O)=O)c2c(Cl)ccc(-n3c([C@H](Cc4cc(F)cc(F)c4)NC(=O)Cn4nc(C(F)F)c5c4C(F)(F)[C@@H]4C[C@H]54)nc4nc(C5CCC(F)(F)CC5)cc(C5CC5)c4c3=O)c21` (atropisomer, axis not shown; (P)) [Example 716, N-[(1S)-1-[(3P)-3-{4-chloro-1-[(2R)-1-[(3R,5S)-3,5-difluoropiperidin-1-yl]propan-2-yl]-3-methanesulfonamido-1H-indazol-7-yl}-5-cyclopropyl-7-(4,4-difluorocyclohexyl)-4-oxo-3H,4H-pyrido[2,3-d]pyrimidin-2-yl]-2-(3,5-difluorophenyl)ethyl]-2-[(2S,4R)-9-(difluoromethyl)-5,5-difluoro-7,8-diazatricyclo[4.3.0.0^2,^4]nona-1(6),8-dien-7-yl]acetamide], the concentration for a half-maximal effect (EC50) in data set [1] turned out to be 0.035 nM. Besides, the CC50 at 4 days in data set [2] is > 20 nM.

Turning to `Cc1cc(C2(F)CCC(F)(F)CC2)nc2nc([C@H](Cc3cc(F)cc(F)c3)NC(=O)Cn3nc(C(F)F)c4c3C(F)(F)[C@@H]3C[C@H]43)n(-c3ccc(Cl)c4c(NS(C)(=O)=O)nn(C[C@H](C)N5CC(C)(C)OC(C)(C)C5)c34)c(=O)c12` (atropisomer, axis not shown; (P)) [Example 717, N-[(1S)-1-[(3P)-3-{4-chloro-3-methanesulfonamido-1-[(2S)-2-(2,2,6,6-tetramethylmorpholin-4-yl)propyl]-1H-indazol-7-yl}-5-methyl-4-oxo-7-(1,4,4-trifluorocyclohexyl)-3H,4H-pyrido[2,3-d]pyrimidin-2-yl]-2-(3,5-difluorophenyl)ethyl]-2-[(2S,4R)-9-(difluoromethyl)-5,5-difluoro-7,8-diazatricyclo[4.3.0.0^2,^4]nona-1(6),8-dien-7-yl]acetamide], in data set [1], the EC50 is 0.032 nM. In addition, in data set [2], the CC50 at 4 days was > 20 nM.

As to `Cc1cc(C2(F)CCC(F)(F)CC2)nc2nc([C@H](Cc3cc(F)cc(F)c3)NC(=O)Cn3nc(C(F)F)c4c3C(F)(F)[C@@H]3C[C@H]43)n(-c3ccc(Cl)c4c(NS(C)(=O)=O)nn(C[C@@H](C)N5C[C@@H](C)O[C@@H](C)C5)c34)c(=O)c12` (atropisomer, axis not shown; (P)) [Example 720, N-[(1S)-1-[(3P)-3-{4-chloro-1-[(2R)-2-[(2R,6S)-2,6-dimethylmorpholin-4-yl]propyl]-3-methanesulfonamido-1H-indazol-7-yl}-5-methyl-4-oxo-7-(1,4,4-trifluorocyclohexyl)-3H,4H-pyrido[2,3-d]pyrimidin-2-yl]-2-(3,5-difluorophenyl)ethyl]-2-[(2S,4R)-9-(difluoromethyl)-5,5-difluoro-7,8-diazatricyclo[4.3.0.0^2,^4]nona-1(6),8-dien-7-yl]acetamide], the EC50 in data set [1] is 0.007 nM. Further, the CC50 at 4 days in data set [2] is > 20 nM.

`Cc1cc(C2(F)CCC(F)(F)CC2)nc2nc([C@H](Cc3cc(F)cc(F)c3)NC(=O)Cn3nc(C(F)F)c4c3C(F)(F)[C@@H]3C[C@H]43)n(-c3ccc(Cl)c4c(NS(C)(=O)=O)nn([C@H](C)CN5C[C@@H](C)O[C@@H](C)C5)c34)c(=O)c12` (atropisomer, axis not shown; (P)) [Example 729, N-[(1S)-1-[(3P)-3-{4-chloro-1-[(2R)-1-[(2R,6S)-2,6-dimethylmorpholin-4-yl]propan-2-yl]-3-methanesulfonamido-1H-indazol-7-yl}-5-methyl-4-oxo-7-(1,4,4-trifluorocyclohexyl)-3H,4H-pyrido[2,3-d]pyrimidin-2-yl]-2-(3,5-difluorophenyl)ethyl]-2-[(2S,4R)-9-(difluoromethyl)-5,5-difluoro-7,8-diazatricyclo[4.3.0.0^2,^4]nona-1(6),8-dien-7-yl]acetamide]: in data set [1], the half-maximal effective concentration (EC50) came to 0.023 nM. The cytotoxic concentration (CC50) at 4 days in data set [2] is > 20 nM.

In the case of `Cc1cc(C2CCC(F)(F)CC2)nc2nc([C@H](Cc3cc(F)cc(F)c3)NC(=O)Cn3nc(C(F)F)c4c3C(F)(F)[C@@H]3C[C@H]43)n(-c3ccc(Cl)c4c(NS(C)(=O)=O)nn([C@H](C)CN5CC(C)(C)OC(C)(C)C5)c34)c(=O)c12` (atropisomer, axis not shown; (P)) [Example 733, N-[(1S)-1-[(3P)-3-{4-chloro-3-methanesulfonamido-1-[(2R)-1-(2,2,6,6-tetramethylmorpholin-4-yl)propan-2-yl]-1H-indazol-7-yl}-7-(4,4-difluorocyclohexyl)-5-methyl-4-oxo-3H,4H-pyrido[2,3-d]pyrimidin-2-yl]-2-(3,5-difluorophenyl)ethyl]-2-[(2S,4R)-9-(difluoromethyl)-5,5-difluoro-7,8-diazatricyclo[4.3.0.0^2,^4]nona-1(6),8-dien-7-yl]acetamide], the EC50 in data set [1] came to 0.037 nM. In data set [2], the 50% cytotoxic concentration (CC50) at 4 days is > 20 nM.

As for `C[C@@H](CN1C[C@H](F)C[C@H](F)C1)n1nc(NS(C)(=O)=O)c2c(Cl)ccc(-n3c([C@H](Cc4cc(F)cc(F)c4)NC(=O)Cn4nc(C(F)F)c5c4C(F)(F)[C@@H]4C[C@H]54)nc4nc(C5CCC(F)(F)CC5)cc(C5CC5)c4c3=O)c21` (atropisomer, axis not shown; (P)) [Example 735, N-[(1S)-1-[(3P)-3-{4-chloro-1-[(2S)-1-[(3R,5S)-3,5-difluoropiperidin-1-yl]propan-2-yl]-3-methanesulfonamido-1H-indazol-7-yl}-5-cyclopropyl-7-(4,4-difluorocyclohexyl)-4-oxo-3H, 4H-pyrido[2,3-d]pyrimidin-2-yl]-2-(3,5-difluorophenyl)ethyl]-2-[(2S,4R)-9-(difluoromethyl)-5,5-difluoro-7,8-diazatricyclo[4.3.0.0^2,^4]nona-1(6),8-dien-7-yl]acetamide], in data set [1], the EC50 was found to be 0.018 nM. Besides, the cytotoxic concentration (CC50) at 4 days in data set [2] is > 20 nM.

In the case of `Cc1cc(C2(F)CCC(F)(F)CC2)nc2nc([C@H](Cc3cc(F)cc(F)c3)NC(=O)Cn3nc(C(F)F)c4c3C(F)(F)[C@@H]3C[C@H]43)n(-c3ccc(Cl)c4c(NS(C)(=O)=O)nn(CCc5cccnc5)c34)c(=O)c12` (atropisomer, axis not shown; (P)) [Example 740, N-[(1S)-1-[(3P)-3-{4-chloro-3-methanesulfonamido-1-[2-(pyridin-3-yl)ethyl]-1H-indazol-7-yl}-5-methyl-4-oxo-7-(1,4,4-trifluorocyclohexyl)-3H,4H-pyrido[2,3-d]pyrimidin-2-yl]-2-(3,5-difluorophenyl)ethyl]-2-[(2S,4R)-9-(difluoromethyl)-5,5-difluoro-7,8-diazatricyclo[4.3.0.0^2,^4]nona-1(6),8-dien-7-yl]acetamide], in data set [1], the 50% effective concentration (EC50) is 0.021 nM. The cytotoxic concentration (CC50) at 4 days in data set [2] is > 20 nM.

Consider `Cc1cc(C2CCC(F)(F)CC2)nc2nc([C@H](Cc3cc(F)cc(F)c3)NC(=O)Cn3nc(C(F)F)c4c3C(F)(F)[C@@H]3C[C@H]43)n(-c3ccc(Cl)c4c(NS(C)(=O)=O)nn([C@@H](C)CN5CC(C)(C)OC(C)(C)C5)c34)c(=O)c12` (atropisomer, axis not shown; (P)) [Example 742, N-[(1S)-1-[(3P)-3-{4-chloro-3-methanesulfonamido-1-[(2S)-1-(2,2,6,6-tetramethylmorpholin-4-yl)propan-2-yl]-1H-indazol-7-yl}-7-(4,4-difluorocyclohexyl)-5-methyl-4-oxo-3H,4H-pyrido[2,3-d]pyrimidin-2-yl]-2-(3,5-difluorophenyl)ethyl]-2-[(2S,4R)-9-(difluoromethyl)-5,5-difluoro-7,8-diazatricyclo[4.3.0.0^2,^4]nona-1(6),8-dien-7-yl]acetamide], for which the EC50 in data set [1] is 0.026 nM. For the same compound, in data set [2], the CC50 at 4 days was > 20 nM.

For the compound `Cc1cc(C2(F)CCC(F)(F)CC2)nc2nc([C@H](Cc3cc(F)cc(F)c3)NC(=O)Cn3nc(C(F)F)c4c3C(F)(F)[C@@H]3C[C@H]43)n(-c3ccc(Cl)c4c(NS(C)(=O)=O)nn([C@H](C)C(=O)N5C[C@@H](C)O[C@@H](C)C5)c34)c(=O)c12` (atropisomer, axis not shown; (P)) [Example 743, N-[(1S)-1-[(3P)-3-{4-chloro-1-[(2R)-1-[(2R,6S)-2,6-dimethylmorpholin-4-yl]-1-oxopropan-2-yl]-3-methanesulfonamido-1H-indazol-7-yl}-5-methyl-4-oxo-7-(1,4,4-trifluorocyclohexyl)-3H,4H-pyrido[2,3-d]pyrimidin-2-yl]-2-(3,5-difluorophenyl)ethyl]-2-[(2S,4R)-9-(difluoromethyl)-5,5-difluoro-7,8-diazatricyclo[4.3.0.0^2,^4]nona-1(6),8-dien-7-yl]acetamide], in data set [1], the EC50 was 0.016 nM. Further, in data set [2], the CC50 at 4 days is > 20 nM.
